Entries after “also recorded” stand apart in the source; their conditions may differ. Where only a bound is given, the exact number is not on record here.

For one data set, the system named is Artemia salina nauplii. As to the kind of experiment: Brine shrimp lethality test. The note with it: for toxicity in the lethality test, in words: 24 and 48 h, 0.05–5% (w/v); for LC50: nauplii, 0.05–5.0% (w/v) tested; for LC50 values: both timepoints (24 and 48 h), summary statement. On the procedure:
Artemia salina cysts were hatched in beakers filled with artificial sea water at a salinity of 35 g/L, under continuous aeration, and at a temperature of 25 ± 1 °C for 48 h and a light/dark cycle of 16/8 h. The constant conditions were maintained using a plant growth chamber (Sanyo MLR-351 H, San Diego, CA, USA). After hatching, the Artemia nauplii were separated and brought in aerated fresh artificial sea water. A number of ten nauplii were added in tissue culture plates containing 24 wells (Greiner Bio-One, Kremsmünster, Austria), along with the tested solutions [29, 30]. […] Artificial sea water was used as negative control and sodium lauryl sulfate as positive control. The artificial seawater was prepared according to the instructions provided by the Artemia egg manufacturer, using the supplied salts dissolved in distilled water. A total of 5 L was prepared, aerated, and stored at 4 °C, in dark for no more than two weeks. Before use, the artificial seawater was aerated again. […] The lethality values were calculated and were plotted against the logarithm of concentrations, using the least square fit method to obtain lethality curves. […] The photographs were taken using an ODC 825 Microscope Digital Camera (KERN, Balingen, Germany), with a resolution of 5.1 MP and a 1/2.5″ Aptina CMOS sensor, and processed using Microscope-VIS software 2.0 (KERN Balingen, Germany).

In data set [1] the test system is Artemia salina cysts. Put plainly: Hatching inhibition test. To be noted: for IC50 (hatching inhibition): cysts, 0.1–2.5% (w/v) tested; for inhibition of hatching, in words: 0.1–2.5%. In kind it is in vivo. How it is done: SLS was used as positive control and artificial sea water as negative control. The determination was performed according to the protocols described in the literature, with some modifications.
Each sample was performed in duplicate, and artificial sea water was used as control. The hatching process was monitored at 24 and 48 h, and stages 0 and Instar I–III were considered for the quantification. Randomization and blinding were not applied in the assays, as the evaluation of developmental stages is considered objective and unlikely to be influenced by observer bias. The inhibition of the hatching (HI) process was calculated versus the control using the formula presented by Rotini et al.. HI50 was calculated by interpolating on the curves plotted, using the logarithm of concentrations and the hatching inhibition (%) with the least square fit method.

The test system of data set [2] is Artemia salina cysts. Put plainly: Hatching and development of nauplii (stage groups A–D). The format is in vivo. To be noted: for individuals reaching Group D (Instar I–III): 48 h. On the procedure: Each sample was monitored using a stereo-microscope (STMLAB, Monza, Italy) and a bright-field microscope (Euromex, Bscope series, Groningen, The Netherlands) at both moments of determination. After 48 h, a mixture of ethanol and acetic acid in the ratio of 3:1 (v/v) was added to each sample to ensure the preservation for further observations. Depending on the development stage of each sample, the hatching process was divided into four main groups (A–D), and expressed as percents (%). The first group were the unhatched eggs (group A) that remain unchanged between the rehydration operation and the moment of observation; in the second group were the eggs with a broken shell (group B) with evident cracks and modified shape; the third category corresponds to the hatching moment, and it was noted as stage 0 (group C), when the nauplii are pear-shaped or umbrella-shaped and immobile; the fourth stage corresponds to larval stages that comprise the naupliar development stages Instar I–III (group D). All samples were compared to the untreated control to identify non-disruptive concentrations and solvent compatibility for future hatching assays.

Setting [3] is: all concentrations (0.1–2.5%), 24 and 48 h.
Where [4] appears, read: 48 h, all concentrations (0.05–5%).

In the case of `NC(N)=O` [Urea, urea], in the data set on Artemia salina nauplii, the “toxicity in the lethality test, in words” value is “moderate toxicity”. The LC50 with Artemia salina nauplii (24 h exposure) turned out to be 1.11%; in the data set on Artemia salina nauplii (48 h exposure), 0.74%. Moreover, the inhibition of hatching result in the data set on Artemia salina cysts [1] (setting [3]) is “under 50%”. In the data set with Artemia salina cysts [2] (at 2.5%), the “effect on development, in words” value is on record as “some developmental delay”.
For `CN(C)C=O` [DMF, dimethylformamide], the “toxicity in the lethality test, in words” value with Artemia salina nauplii is given as “moderate toxicity”. Besides, the LC50 with Artemia salina nauplii (24 h exposure) was determined as 1.24%; in the data set with Artemia salina nauplii (48 h exposure), 1.06%. In addition, in the data set on Artemia salina nauplii (48 h, at 1%), the lethality result is reported as “up to 80%”.
Consider `CCN(CC)C(=O)c1cccnc1` [DENA, N,N-diethylnicotinamide], for which, in the data set with Artemia salina nauplii, the “toxicity in the lethality test, in words” value is given as “highly toxic”. Also, the LC50 with Artemia salina nauplii (24 h exposure) came to 0.22%; with Artemia salina nauplii (48 h exposure), 0.05%. Also, the lethality with Artemia salina nauplii (48 h, at 0.1%) stood at 45%; in the data set with Artemia salina nauplii (48 h, concentrations ≥ 1%), 100%. Further, the “IC50 (hatching inhibition)” value with Artemia salina cysts [1] (24 h) was 0.97%; in the data set with Artemia salina cysts [1] (48 h), 1.10%. In the data set with Artemia salina cysts [1] (at 2.5%), the inhibition of hatching entry is listed as “full inhibition”. Further, the “effect on development, in words” value in the data set with Artemia salina cysts [2] (at 2.5%) is “development was arrested in Groups A and B”.
Regarding `CN(C)C(=O)c1ccccc1` [DMBA, N,N-dimethylbenzamide], the “toxicity in the lethality test, in words” value with Artemia salina nauplii is “highly toxic”. Further, the lethality in the data set with Artemia salina nauplii (24 h, down to 0.5%) turned out to be 100%; with Artemia salina nauplii (48 h, at 0.1%) it was 75%; in the data set with Artemia salina nauplii (48 h, concentrations ≥ 1%), 100%. In addition, the LC50 in the data set on Artemia salina nauplii (24 h exposure) was 0.13%; in the data set on Artemia salina nauplii (48 h exposure), 0.09%. In the data set with Artemia salina nauplii, the LC50 values was no more than 1%. Moreover, the “IC50 (hatching inhibition)” value in the data set with Artemia salina cysts [1] (24 h) turned out to be 0.27%; in the data set with Artemia salina cysts [1] (48 h), 19.23%. Also, in the data set with Artemia salina cysts [1] (24 h, high concentrations), the inhibition of hatching result is recorded as “exceeding 90%”. Also, the “effect on development, in words” value with Artemia salina cysts [2] (from 0.5% upward) was “no significant presence in Group D”.
Take `O=S(=O)([O-])c1cccc(S(=O)(=O)[O-])c1.[Na+].[Na+]` [SBDS, sodium benzene-1,3-disulfonate]: the inhibition of hatching entry with Artemia salina cysts [1] (setting [3]) is on record as “under 50%”. Besides, the “effect on development, in words” value with Artemia salina cysts [2] (0.1–2.5%, 24 and 48 h) was “low impact on embryonic development”.
With `O=S(=O)([O-])c1ccccc1.[Na+]` [SBS, sodium benzenesulfonate], the “toxicity in the lethality test, in words” value in the data set with Artemia salina nauplii is listed as “moderate toxicity”. In addition, the LC50 with Artemia salina nauplii (24 h exposure) came to 0.93%; in the data set with Artemia salina nauplii (48 h exposure) it was 0.21%. Further, the lethality with Artemia salina nauplii (48 h, concentrations ≥ 1%) came out at 100%. The “inhibition of hatching, in words” value in the data set with Artemia salina cysts [1] (24 and 48 h) is “only moderate suppression”. Also, in the data set on Artemia salina cysts [2] (0.1–2.5%, 24 and 48 h), the “effect on development, in words” value is recorded as “moderate developmental delay”.
Turning to `CN(C)C(N)=O` [DMU, N,N-dimethylurea], the “toxicity in the lethality test, in words” value in the data set with Artemia salina nauplii is on record as “moderate toxicity”. Moreover, the values for the LC50 with Artemia salina nauplii (24 h exposure) and with Artemia salina nauplii (48 h exposure) were 0.94% and 0.08%, respectively. This compound also yielded a lethality with Artemia salina nauplii (48 h, concentrations ≥ 1%) of 100%. Also, the inhibition of hatching result in the data set on Artemia salina cysts [1] (setting [3]) was “under 50%”. Further, in the data set on Artemia salina cysts [2] (at 0.1%), the “individuals reaching Group D (Instar I–III)” value is given as “over 80%”.
Consider `C[S+](C)[O-]` [DMSO, dimethyl sulfoxide], for which the results for the “toxicity in the lethality test, in words” value with Artemia salina nauplii and with Artemia salina nauplii (listed as dimethyl sulfoxide) were “moderate-to-low toxicity; also recorded: very low toxicity” and “low toxicity”, respectively. In the data set with Artemia salina nauplii (24 h, at 0.1%), the “lethality (maximum)” value is recorded as 25%. The “lethality (peak)” value in the data set with Artemia salina nauplii (48 h, at 0.5%) turned out to be 45%. Besides, in the data set on Artemia salina cysts [1] (24 and 48 h), the “inhibition of hatching, in words” value is given as “very low or no inhibition; also recorded: minimal or no inhibition”. For the same compound, the “effect on development, in words” value with Artemia salina cysts [2] (0.1–2.5%, 24 and 48 h) was “very low developmental toxicity”. Also, in the data set on Artemia salina cysts [2] (at 2.5%), the “embryos developed fully (Group D)” value is on record as “over 80%”.
Take Tween 80: in the data set with Artemia salina nauplii, the “toxicity in the lethality test, in words” value is listed as “such high mortality at all tested concentrations”.
Take sodium xylenesulfonate [SXS]: the values for the LC50 in the data set on Artemia salina nauplii (24 h exposure) and with Artemia salina nauplii (48 h exposure) were 1.01% and 0.79%, respectively. In the data set on Artemia salina nauplii (48 h, concentrations ≥ 1%), this compound registered a lethality of 100%. The same compound displayed an LC50 values with Artemia salina nauplii of no more than 1%. For the same compound, the “IC50 (hatching inhibition)” value in the data set on Artemia salina cysts [1] (24 h) is on record as 0.28%; in the data set on Artemia salina cysts [1] (48 h), 0.41%. Also, the inhibition of hatching in the data set with Artemia salina cysts [1] (at 2.5%) worked out at 100%. Further, in the data set on Artemia salina cysts [2] (at 2.5%), the “effect on development, in words” value is given as “no development beyond Group B occurred”.
For `CCCCCCCCCCCCOS(=O)(=O)[O-].[Na+]` [SLS, sodium lauryl sulfate, reference compound], the “toxicity in the lethality test, in words” value with Artemia salina nauplii is recorded as “highly toxic; also recorded: such high mortality at all tested concentrations”. In addition, the lethality is on record as 100% in the data set on Artemia salina nauplii (24 h, across all concentrations (0.05–5%)) and 100% with Artemia salina nauplii (setting [4]). In the data set with Artemia salina cysts [1] (24 and 48 h), the “inhibition of hatching, in words” value is given as “complete or near complete inhibition”. Moreover, the “effect on development, in words” value in the data set on Artemia salina cysts [2] (0.1–2.5%, 24 and 48 h) is listed as “complete developmental arrest”.
With `Cc1ccc(S(=O)(=O)O)cc1.[Na]` [PTS, sodium p-toluenesulfonate], the “toxicity in the lethality test, in words” value in the data set with Artemia salina nauplii is reported as “highly toxic”. Moreover, the lethality in the data set with Artemia salina nauplii (24 h, highest concentration (5%)) was determined as 100%; in the data set with Artemia salina nauplii (48 h, at 0.1%), 90%; in the data set on Artemia salina nauplii (48 h, concentrations ≥ 1%) it was 100%. This compound returned an LC50 values in the data set on Artemia salina nauplii of no more than 1%. In the data set with Artemia salina cysts [1] (24 h), the “IC50 (hatching inhibition)” value was roughly 2.49%. Besides, the inhibition of hatching entry in the data set on Artemia salina cysts [1] (at 2.5%) was “strong suppression”. In addition, the “individuals reaching Group D (Instar I–III)” value in the data set on Artemia salina cysts [2] (at 1%) is given as “over 60%”. In the data set on Artemia salina cysts [2] (at 2.5%), the “effect on development, in words” value is “Groups A and B became dominant”.
For `CC(O)CO` (stereo not shown) [PDO, propylene glycol], the “toxicity in the lethality test, in words” value in the data set with Artemia salina nauplii is on record as “very low toxicity”; in the data set on Artemia salina nauplii (listed as propylene glycol) it was “low toxicity”. The compound further had a lethality in the data set on Artemia salina nauplii (48 h, highest concentration (5%)) of 95%. The compound further gave an LC50 with Artemia salina nauplii (48 h exposure) of 1.64%. Further, the “inhibition of hatching, in words” value in the data set with Artemia salina cysts [1] (24 and 48 h) is reported as “very low or no inhibition; also recorded: minimal or no inhibition”. Besides, the “effect on development, in words” value in the data set on Artemia salina cysts [2] (0.1–2.5%, 24 and 48 h) is listed as “minimal interference”.
As to Tween 20, the “toxicity in the lethality test, in words” value in the data set on Artemia salina nauplii is reported as “such high mortality at all tested concentrations”.
Consider `OCC(O)CO` [GLY, glycerol], for which the figures for the “toxicity in the lethality test, in words” value in the data set on Artemia salina nauplii and in the data set on Artemia salina nauplii (listed as Glycerin) were “very low toxicity” and “low toxicity”, respectively. In addition, the lethality result with Artemia salina nauplii (setting [4]) is given as “up to 40%”. The “inhibition of hatching, in words” value in the data set on Artemia salina cysts [1] (24 and 48 h) was “very low or no inhibition; also recorded: minimal or no inhibition”. Also, in the data set on Artemia salina cysts [2] (0.1–2.5%, 24 and 48 h), the “effect on development, in words” value was “negligible impact on development”.

The values are drawn from article PMC12196810, “A Dual Bioassay for Evaluation of Embryotoxicity and Acute Toxicity of Common Solvents and Surfactants in Artemia salina” (Toxics, 2025).
